From ChEMBL document CHEMBL1201862, “PubChem BioAssay data set” (2004)
Calls of active or inactive are those of the source.

Experiments:
Caspase-3 = target: T1, Caspase-3 (Homo sapiens, UniProt P42574); assay: SAR Analysis of small molecule inhibitors of Sentrin-specific proteases (SENPs) using a Caspase-3 Selectivity assay. [Related pubchem assays (depositor defined):AID2540, AID2599, AID434973, AID489001]; format: functional
T1 sequence (P42574 whole entry): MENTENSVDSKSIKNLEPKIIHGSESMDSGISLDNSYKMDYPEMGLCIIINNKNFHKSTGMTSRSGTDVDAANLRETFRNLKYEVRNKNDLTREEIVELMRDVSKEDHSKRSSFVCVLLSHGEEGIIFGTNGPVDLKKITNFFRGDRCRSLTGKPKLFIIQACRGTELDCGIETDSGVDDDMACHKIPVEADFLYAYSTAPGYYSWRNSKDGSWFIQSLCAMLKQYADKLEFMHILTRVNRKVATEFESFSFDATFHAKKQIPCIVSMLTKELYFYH

[1] = target: Serine/threonine-protein phosphatase PP1-alpha catalytic subunit (Homo sapiens, UniProt P62136); assay: PP1 phosphatase inhibitors, dose response, biochemical, fluorescence (AID 2394)
Chain of Serine/threonine-protein phosphatase PP1-alpha catalytic subunit (P62136 whole entry): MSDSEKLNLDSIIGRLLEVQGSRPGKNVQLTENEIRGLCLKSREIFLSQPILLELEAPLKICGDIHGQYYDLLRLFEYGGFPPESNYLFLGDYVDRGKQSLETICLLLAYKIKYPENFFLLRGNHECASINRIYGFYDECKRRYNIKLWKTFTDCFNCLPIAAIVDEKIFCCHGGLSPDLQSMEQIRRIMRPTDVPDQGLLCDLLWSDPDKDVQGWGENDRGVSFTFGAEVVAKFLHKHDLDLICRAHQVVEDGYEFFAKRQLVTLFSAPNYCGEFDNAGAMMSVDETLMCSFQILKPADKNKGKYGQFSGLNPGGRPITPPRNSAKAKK

[2] = target: T2, Serine/threonine-protein phosphatase (Homo sapiens, UniProt Q9BPW0); assay: PP5 phosphatase inhibitors, dose response, biochemical, fluorescence (AID 2395)
T2 sequence (Q9BPW0 whole entry): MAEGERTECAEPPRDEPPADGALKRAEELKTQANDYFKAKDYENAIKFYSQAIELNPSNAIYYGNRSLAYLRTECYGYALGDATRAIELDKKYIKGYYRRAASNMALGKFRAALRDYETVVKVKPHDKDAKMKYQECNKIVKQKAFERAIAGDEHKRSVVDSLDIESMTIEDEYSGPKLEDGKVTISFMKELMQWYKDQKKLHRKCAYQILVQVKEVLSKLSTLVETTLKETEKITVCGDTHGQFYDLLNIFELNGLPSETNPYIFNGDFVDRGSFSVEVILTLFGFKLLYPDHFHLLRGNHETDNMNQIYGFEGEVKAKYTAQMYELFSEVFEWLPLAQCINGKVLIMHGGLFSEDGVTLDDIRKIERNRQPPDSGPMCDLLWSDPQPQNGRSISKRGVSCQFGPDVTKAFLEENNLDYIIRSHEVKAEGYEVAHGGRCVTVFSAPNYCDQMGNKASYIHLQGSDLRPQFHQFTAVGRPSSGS

[3] = target: T3, Sentrin-specific protease 7 (Homo sapiens, UniProt Q9BQF6); assay: SENP7 protease inhibitors, SAR follow-up, biochemical, luminescence (AID 504497); format: functional
T3 sequence (Q9BQF6 whole entry): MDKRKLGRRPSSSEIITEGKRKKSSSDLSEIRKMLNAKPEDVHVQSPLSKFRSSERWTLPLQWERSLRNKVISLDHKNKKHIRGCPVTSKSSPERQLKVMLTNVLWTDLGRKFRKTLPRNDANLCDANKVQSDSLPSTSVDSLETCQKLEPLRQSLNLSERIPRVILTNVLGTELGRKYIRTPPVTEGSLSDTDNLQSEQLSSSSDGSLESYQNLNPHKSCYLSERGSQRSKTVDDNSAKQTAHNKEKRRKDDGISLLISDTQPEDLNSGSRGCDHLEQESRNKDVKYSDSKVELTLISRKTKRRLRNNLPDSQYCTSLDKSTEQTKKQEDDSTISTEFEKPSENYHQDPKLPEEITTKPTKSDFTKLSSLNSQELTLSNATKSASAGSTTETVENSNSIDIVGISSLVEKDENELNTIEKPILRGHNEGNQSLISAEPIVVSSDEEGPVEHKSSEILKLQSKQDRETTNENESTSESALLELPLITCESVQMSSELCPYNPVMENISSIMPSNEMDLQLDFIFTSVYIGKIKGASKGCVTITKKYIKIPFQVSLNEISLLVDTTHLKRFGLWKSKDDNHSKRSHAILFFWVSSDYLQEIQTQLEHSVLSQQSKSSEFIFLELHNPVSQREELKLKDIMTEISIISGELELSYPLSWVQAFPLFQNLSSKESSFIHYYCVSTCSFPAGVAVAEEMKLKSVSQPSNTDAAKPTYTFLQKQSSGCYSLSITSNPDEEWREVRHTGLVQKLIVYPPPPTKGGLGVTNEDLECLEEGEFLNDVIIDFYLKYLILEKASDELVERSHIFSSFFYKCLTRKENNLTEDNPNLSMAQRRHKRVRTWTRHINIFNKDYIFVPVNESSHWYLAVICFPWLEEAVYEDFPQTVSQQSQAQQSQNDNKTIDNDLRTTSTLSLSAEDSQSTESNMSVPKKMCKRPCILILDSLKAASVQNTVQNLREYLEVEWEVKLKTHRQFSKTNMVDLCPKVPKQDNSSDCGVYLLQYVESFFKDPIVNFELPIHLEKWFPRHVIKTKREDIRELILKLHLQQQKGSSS

HEK293 [4] = assay: cells; format: functional, cell-based; details: Homo sapiens
[5] = target: Nucleotide-binding oligomerization domain-containing protein 2 (Homo sapiens, UniProt Q9HC29); assay: NOD2 signaling inhibitors, cell-based, luminescence, uHTS, HEK293 (AID 1566); format: functional
Chain of Nucleotide-binding oligomerization domain-containing protein 2 (Q9HC29 whole entry, the tested form may be a part): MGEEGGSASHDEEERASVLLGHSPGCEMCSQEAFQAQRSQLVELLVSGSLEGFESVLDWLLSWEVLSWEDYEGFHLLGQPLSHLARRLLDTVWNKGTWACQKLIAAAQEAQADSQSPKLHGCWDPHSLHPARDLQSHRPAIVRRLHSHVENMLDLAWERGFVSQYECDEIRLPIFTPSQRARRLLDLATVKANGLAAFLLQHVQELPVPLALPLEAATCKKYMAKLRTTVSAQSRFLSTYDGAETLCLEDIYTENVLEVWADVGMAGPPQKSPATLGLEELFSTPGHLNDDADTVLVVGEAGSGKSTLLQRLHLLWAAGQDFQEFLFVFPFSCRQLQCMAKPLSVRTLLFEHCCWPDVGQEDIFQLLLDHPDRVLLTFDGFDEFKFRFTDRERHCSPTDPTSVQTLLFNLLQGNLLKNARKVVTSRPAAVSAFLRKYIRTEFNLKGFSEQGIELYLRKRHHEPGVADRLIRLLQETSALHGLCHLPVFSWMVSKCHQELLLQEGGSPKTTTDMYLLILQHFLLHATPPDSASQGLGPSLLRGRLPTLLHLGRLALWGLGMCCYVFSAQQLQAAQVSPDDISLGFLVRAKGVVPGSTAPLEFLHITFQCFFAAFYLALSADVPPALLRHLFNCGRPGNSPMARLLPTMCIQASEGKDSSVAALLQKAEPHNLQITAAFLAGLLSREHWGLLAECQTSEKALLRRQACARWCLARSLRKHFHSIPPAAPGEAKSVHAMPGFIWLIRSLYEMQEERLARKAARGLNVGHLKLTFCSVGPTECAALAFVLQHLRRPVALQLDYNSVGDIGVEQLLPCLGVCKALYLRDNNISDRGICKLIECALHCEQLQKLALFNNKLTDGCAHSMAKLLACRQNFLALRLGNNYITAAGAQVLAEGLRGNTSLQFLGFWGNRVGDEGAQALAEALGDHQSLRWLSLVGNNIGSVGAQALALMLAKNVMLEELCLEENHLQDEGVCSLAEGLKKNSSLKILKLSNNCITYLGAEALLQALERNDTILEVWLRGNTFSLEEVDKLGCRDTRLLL

HEK293 [6] = assay: NOD2 signaling inhibitors in MDP-stimulated cells, cell-based, uHTS, luminescence (AID 2001); format: functional; details: Homo sapiens
[7] = target: Heat shock protein HSP 90-alpha (Homo sapiens, UniProt P07900); format: functional, organism-based
Streptokinase A = target: T4, Streptokinase A (Streptococcus pyogenes serotype M1, UniProt P10520); assay: S. pyogenes streptokinase expression inhibitors, potency, dose response, plasminogen activation absorbance, OD405 (AID 1914); format: functional, Streptococcus pyogenes M1 GAS;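 further: secreted streptokinase activity via plasminogen activation per viability signal from cell pellet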
T4 sequence (P10520 whole entry): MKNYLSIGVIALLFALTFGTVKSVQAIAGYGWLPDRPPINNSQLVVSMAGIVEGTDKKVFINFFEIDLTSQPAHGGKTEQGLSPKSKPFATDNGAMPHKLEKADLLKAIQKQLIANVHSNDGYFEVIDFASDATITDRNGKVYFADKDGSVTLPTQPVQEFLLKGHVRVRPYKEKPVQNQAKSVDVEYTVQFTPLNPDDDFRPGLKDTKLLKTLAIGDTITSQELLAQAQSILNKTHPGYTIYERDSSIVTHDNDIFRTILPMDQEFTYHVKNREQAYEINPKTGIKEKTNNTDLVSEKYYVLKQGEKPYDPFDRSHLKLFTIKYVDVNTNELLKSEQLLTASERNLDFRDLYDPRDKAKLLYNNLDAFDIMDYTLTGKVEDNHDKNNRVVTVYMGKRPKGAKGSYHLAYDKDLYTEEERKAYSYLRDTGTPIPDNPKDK

H4 = assay: inhibitors of control reporter signal in H4 cells – cell-based, plate reader, dry powder samples, counter-screen for prion reporter project, dose response (AID 540255); format: functional; details: Homo sapiens
SUMO-activating enzyme = SUMO-activating enzyme (Homo sapiens, UniProt Q9UBT2); assay: SUMOylation inhibitor hit validation, confirmation, SUMOylation inhibitor project, biochemical, AlphaScreen (AID 2018); format: functional
Chain of SUMO-activating enzyme (Q9UBE0 whole entry): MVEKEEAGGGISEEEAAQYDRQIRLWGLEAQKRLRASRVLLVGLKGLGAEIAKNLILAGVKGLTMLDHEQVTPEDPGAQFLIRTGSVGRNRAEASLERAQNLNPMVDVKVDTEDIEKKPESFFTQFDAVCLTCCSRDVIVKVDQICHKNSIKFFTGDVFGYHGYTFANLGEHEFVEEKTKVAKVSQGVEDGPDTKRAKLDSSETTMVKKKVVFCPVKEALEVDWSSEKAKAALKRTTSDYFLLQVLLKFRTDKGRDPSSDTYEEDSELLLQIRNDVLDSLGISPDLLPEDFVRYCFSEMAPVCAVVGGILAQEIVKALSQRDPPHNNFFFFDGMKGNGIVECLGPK
Chain of SUMO-activating enzyme (Q9UBT2 whole entry): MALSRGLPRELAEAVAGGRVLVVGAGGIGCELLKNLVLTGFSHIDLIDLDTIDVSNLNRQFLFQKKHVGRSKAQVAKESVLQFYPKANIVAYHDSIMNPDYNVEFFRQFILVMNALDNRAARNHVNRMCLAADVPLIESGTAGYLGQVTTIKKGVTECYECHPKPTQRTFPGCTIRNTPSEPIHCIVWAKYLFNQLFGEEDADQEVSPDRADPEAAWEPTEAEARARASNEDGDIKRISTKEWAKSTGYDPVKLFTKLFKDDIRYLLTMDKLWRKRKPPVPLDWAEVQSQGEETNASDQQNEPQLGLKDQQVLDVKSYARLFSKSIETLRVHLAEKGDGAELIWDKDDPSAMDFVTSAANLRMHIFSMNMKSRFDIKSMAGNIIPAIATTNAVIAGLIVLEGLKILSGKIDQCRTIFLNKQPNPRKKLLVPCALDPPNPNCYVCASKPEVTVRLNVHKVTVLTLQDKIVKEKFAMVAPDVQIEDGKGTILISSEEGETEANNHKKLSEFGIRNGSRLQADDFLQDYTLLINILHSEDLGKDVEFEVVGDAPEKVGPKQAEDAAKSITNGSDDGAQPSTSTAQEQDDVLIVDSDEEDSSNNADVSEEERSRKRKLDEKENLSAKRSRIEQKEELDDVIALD

[8] = target: Polyadenylate-binding protein 1 (Homo sapiens, UniProt P11940); assay: PABP1 MLLE–PAM2 interaction inhibitors, dose response, miRNA deadenylation inhibitor project, biochemical, fluorescence polarization, Cy5-PAM2 peptide, secondary (AID 602260); format: functional; details: read-out: IC50_Mean
Chain of Polyadenylate-binding protein 1 (P11940 whole entry): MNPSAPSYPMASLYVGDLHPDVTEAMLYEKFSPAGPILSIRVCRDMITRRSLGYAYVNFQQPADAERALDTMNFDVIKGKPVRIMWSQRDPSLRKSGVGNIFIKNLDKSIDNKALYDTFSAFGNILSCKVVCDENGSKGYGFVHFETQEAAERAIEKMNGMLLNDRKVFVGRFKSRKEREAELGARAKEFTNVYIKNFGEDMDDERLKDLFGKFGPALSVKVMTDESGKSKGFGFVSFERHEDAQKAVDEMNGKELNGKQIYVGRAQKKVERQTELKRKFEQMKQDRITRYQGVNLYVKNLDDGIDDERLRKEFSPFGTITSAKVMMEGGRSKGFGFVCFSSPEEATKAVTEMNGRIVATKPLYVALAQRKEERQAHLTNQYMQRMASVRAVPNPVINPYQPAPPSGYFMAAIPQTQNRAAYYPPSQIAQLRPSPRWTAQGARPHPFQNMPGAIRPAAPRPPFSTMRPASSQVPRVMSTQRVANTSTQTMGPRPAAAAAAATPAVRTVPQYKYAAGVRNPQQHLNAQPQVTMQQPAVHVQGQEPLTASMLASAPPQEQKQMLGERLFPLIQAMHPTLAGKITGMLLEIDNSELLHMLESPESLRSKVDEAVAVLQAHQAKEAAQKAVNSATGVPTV

**Q.** For `Cc1ccc(C(=O)NNc2cc(N3CCCC3)nc(N3CCCC3)n2)cc1`, which IC50 (Caspase-3) is on record?
**A.** The IC50 was > 99 µM (inactive).

**Q.** And the IC50 [1]?
**A.** Its IC50 is 64 µM (not active).

**Q.** And the IC50 [2]?
**A.** Its IC50 is 4.1 µM (active).

**Q.** And the IC50 [3]?
**A.** The IC50 was 7.68 µM (active).

**Q.** Which IC50 (HEK293 [4]) does the source give for `Cc1cc(/C=C2\SC(=S)N(C)C2=O)c(C)n1-c1ccc(O)cc1` here?
**A.** Its IC50 is 11.2 µM (active).

**Q.** And the EC50 [5]?
**A.** Its EC50 is 570 nM (active).

**Q.** What about the IC50 (HEK293 [6]) of the same molecule?
**A.** The IC50 was 6.54 µM (inactive).

**Q.** And the AC50 [7]?
**A.** The AC50 was 8.02 µM (active).

**Q.** What about the EC50 (Streptokinase A) of the same molecule?
**A.** Its EC50 is > 150 µM (not active).

**Q.** What about the AC50 (H4) of the same molecule?
**A.** The AC50 was 492 nM (active).

**Q.** For `COC(=O)c1cccc(-c2ccc(C(c3c(C)n[nH]c3O)c3c(C)n[nH]c3O)o2)c1`, which IC50 (SUMO-activating enzyme) is on record?
**A.** The IC50 was 9.36 µM (active).

**Q.** Which IC50 [8] does the source give for `O=C1/C(=N\c2cccc(O)c2)C(N2CCCCC2)=C(O)c2ccccc21` here?
**A.** Its IC50 is > 66 µM (inactive).
